{"source": "patent US20120328526A1", "about": "“Modulation of Nad+ Activity in Neuropathophysiological Conditions and Uses Thereof” (University of Maryland, Baltimore, priority 2011, published 2012)", "key": {"CD38-deficient cells": {"system": "CD38-deficient cells", "assay": "Oxygen-glucose deprivation (OGD) in CD38-deficient cell cultures", "type": "cell-based, mouse", "text": "At later recovery periods, tissue NAD(H) decrease since the NAD^+ translocates from mitochondria to the cytosol and is hydrolyzed by the activated NAD^+ glycohydrolases CD38 and PARP1. CD38-dependent overactivation of microglia under diabetic conditions leads to aggravation of ischemic brain damage, astrocytes and neurons prepared from CD38 knockout animals with microglia (9) from wild type or CD38-null animals are co-cultured. The co-cultures are then subjected to OGD and the cell death assessed at 24 h of recovery.\nExposure of cortical astrocytes to OGD plus ISS for 4 h results in significant (>50%) cell death after 24 h of reoxygenation (24) was determined. When cortical neurons are subjected to the same insult for 1 h, a similar level of cell death (40-50%) was observed. Cells cultured under hyperglycemic conditions (30 mM glucose) are more sensitive to the oxygen-glucose deprivation (OGD) insult. The CD38-deficient cells will have elevated basal levels of NAD(H) since the brain NAD(H) levels in CD38-null mice are several-fold higher when compared to wild type mice (6). The protective effect of CD38 knockout in specific cell types will also depend on the oxygen-glucose deprivation-induced loss of mitochondrial NAD(H) that can promote total cellular NAD(H) depletion. […]"}, "[1]": {"system": "C57Bl/6 mice subjected to moderate-level traumatic brain injury", "assay": "Beam walk test after controlled cortical impact traumatic brain injury", "type": "in vivo, mouse", "details": "NMN 500 mg/kg I.P. at 1 hour post-injury, 7 days post-injury, p<0.001", "method": "FIGS. 9A-9B show traumatic brain injury-induced deficits in sensorimotor function and cognition are ameliorated by nicotinamide mononucleotide treatment. FIG. 9A: Fine motor coordination deficits were quantified using a beam walk test in C57Bl/6 mice subjected to moderate-level traumatic brain injury and treated with nicotinamide mononucleotide (500 mg/kg, I.P.) or equal volume of vehicle at 1 hour post-injury. Hindlimb foot placement was recorded up to 7 days post-injury and the number of foot faults recorded from 50 steps. Naïve C57Bl/6 mice served as a control group. […] Analysis was by repeated measures one-way ANOVA, followed by post-hoc adjustments using Student-Newman-Keuls test. Mean ±S.E.M.; n=5/group. FIG. 9B: Cognitive performance was analyzed by measuring the number of anti-clockwise and clockwise rotations of traumatic brain injury mice in an open field test performed at 7 days post-injury.\nIn a clinically relevant model of traumatic brain injury, controlled cortical impact (CCI) (Fox et al. 1998), was induced in C57Bl/6 mice and these animals were followed for up to 1 year post-injury to assess post-traumatic tissue loss and neurodegeneration. […] One group was evaluated for changes between 24 h and 3 months post-injury; a second group was used to compare changes in TBI-induced lesion volume between 6 and 12 months. […]"}, "[2]": {"assay": "Core temperature and blood pressure after nicotinamide mononucleotide administration in post-ischemic animals", "type": "in vivo, mouse", "text": "For quantification of uninjured cells within the CA1 sector of the hippocampus an unbiased stereological technique was used (27). […] This is in accord with the degree of hippocampal injury reported in other models of mouse forebrain ischemia. There were no seizure incidents during the first hours of recovery however there was about 10% mortality in the 5 days recovery group. […] To exclude the possibility that the protection was due to hypothermia, the treated animals' core temperature was monitored for 1 h after the nicotinamide mononucleotide administration. The body temperature was stable at 37.5° C. Similarly there was no effect of nicotinamide mononucleotide administration on the animals' blood pressure that was maintained between 80 and 100 mmHg after the compound injection."}}}
{"smiles": "NC(=O)c1ccc[n+]([C@@H]2O[C@H](COP(=O)([O-])O)[C@@H](O)[C@H]2O)c1", "note": "[nicotinamide mononucleotide]", "values": [{"measurement": "protective effect in CD38-deficient cells compared to PARP-1 inhibitors 3-AB or PJ34", "setting": "CD38-deficient cells", "result": "less efficient protective effect"}, {"measurement": "fine motor coordination (beam walk foot faults) vs vehicle-treated TBI mice", "setting": "[1]", "result": "significant improvement in motor performance"}, {"measurement": "fine motor coordination (beam walk foot faults) vs vehicle-treated TBI mice", "setting": "[1]; listed as NMN", "result": "significantly reduced deficits in fine motor coordination"}, {"measurement": "effect on animals' blood pressure", "setting": "[2]; after the compound injection (500 mg/kg)", "result": "no effect"}, {"measurement": "body (core) temperature after administration", "setting": "[2]; monitored for 1 h after NMN administration (500 mg/kg)", "result": 37.5, "unit": "°C"}]}
